Results as given in patent US20240287477A1, “CATALASE MIMETIC PEPTIDES” (Northwestern University, priority 2023, published 2024).
Square brackets hold non-standard residues; d marks the D form. Ends that are not written are not given here.

What was measured:
Type in all cases: cell-based
MCF-10AER/cSrc = assay: Transformation (spiked shape) of cells after 4-hydroxy-tamoxifen, phase contrast imaging; conditions: after 4-OHT (1 μM); either in single dose or every day
Experimental: (§1) FIG. 1A. REDOX effects promoted by peptidyl di-copper complex. (A) Oxidized (λex=[…]) and reduced (λex=[…]) roGFP2 signals 30 minutes after exposure to the metallocomplex (Day 1) and at the final of the experiment (Day 5) were measured and the oxidized/reduced ratio was obtained using ImageJ (shown as histogram). FIG. 1B. Representative images of MCF-10AER/cSrc transformation after treatment with 4-hydroxy-tamoxifen (1 μM) registered by Lionheart (phase contrast). FIG. 1C. Western blot analysis of E-Cadherin (E-Cad), Fibronectin (FN1), and Vimentin (Vim) in MCF-10AER/cSrc transformed cells (5 days after 4-OHT treatment). CATm1-peptidyl di-copper complex, as previously reported, DNK01-peptidyl di-copper complex with D-amino acids, sd-single dose, cd-daily doses.
Another important observation was the delayed transformation of the cells in the system. After exposure to 4-OHT, cells acquired a spiked shape as soon as day 1 to day 2 (FIG. 1B). This process was delayed for two days when the cells were exposed to Cu^2+-CATm1 or Cu^2+-DNK01 either in single dose or every day.

E-Cadherin (E-Cad) = assay: Western blot of epithelial marker E-cadherin in transformed cells, day 5; conditions: cells exposed only to 4-OHT
Experimental: as §1
(§2) Experiments were conducted during development of embodiments herein to measure the expression of EMT markers in this system at the end of the experiment (day 5). […] But in cells exposed only to 4-OHT, the levels dropped to almost 50% in comparison to the control cells. In the same FIGURE, the mesenchymal markers Vimentin and Fibronectin were also probed by western blot. […] Transformed cells, 4-OHT treated, expressed 3 times compared to control, and cells also treated with peptides in single doses.

Fibronectin (FN1) = assay: Western blot of mesenchymal marker Fibronectin in transformed cells, day 5; conditions: 4-OHT treated only
Experimental: as §1, §2

[1] = system: MCF-10A ER/cSrc/NLS-Orp1-roGFP2 cells; assay: Nuclear ROS by NLS-roGFP2-Orp1 oxidized/reduced ratio after 4-OHT exposure; conditions: peptide 250 μM, CuSO4 500 μM; for ROS levels: day 5
Experimental: as §1
Lyophilized peptides were resuspended in MOPS buffer (30 mM, pH 7.5) to a concentration of 5 mM; a 50 mM copper solution was prepared in the same buffer. Both solutions were mixed in a 1:2 (peptide:copper) concentration 30 minutes before applying them to the cell culture. The final concentration of the complex in the cell culture was peptide at 250 μM and CuSO4 at 500 μM. The culture was monitored by measuring the ratio I(405/525)/I(488/525) given by the NLS-roGFP2-Orp1.
Exposure to 4-hydroxytamoxifen (4-OHT) transforms MCF-10A ER/cSrc/NLS-Orp1-roGFP2 cells into a tumorous cell line due to the oxidation of the nuclear compartment. Experiments were conducted by measuring the nuclear ROS in these cells. Probe oxidation status was monitored for 5 days after exposure to 4-OHT (FIG. 1A). […] It was not sufficient to keep the ROS levels as low as on day 1. This was due to a disruption of the complex and accumulation of free copper in the media.

Substance | delay of transformation of the cells (spiked shape) (MCF-10AER/cSrc) | E-cadherin levels in comparison to the control cells (E-Cadherin (E-Cad)) [%] | Fibronectin expression compared to control (Fibronectin (FN1)) [times] | levels of nuclear oxidants ([1]; day 1, right after exposure (30 minutes), 4-OHT treated cells) | ROS levels ([1]; presented everyday with fresh media) | ROS levels ([1]; single dose in day 1)
dPdHdYdKdHdRdLdH ([dP][dH][dY][dK][dH][dR][dL][dH]; also: di-copper complex) [DNK01, peptidyl di-copper complex with D-amino acids] | two |  |  |  |  | 
4-hydroxytamoxifen [4-OHT] |  | ~50 | 3 |  |  | 
PHYKHRLH (also: di-copper complex) [CATm1, short peptidyl di-copper complex developed to mimic catalase, as previously reported] | two |  |  | lower levels of nuclear oxidants | keep the ROS in lower levels | ROS levels increase
